Structures are written as SMILES. Values joined by “and” are separate entries in the source; they are usually repeats but may differ in a detail not shown here. Identical values can stand only once. Toxic doses and inconclusive results are not listed.

Consider 22 compounds from PubChem BioAssay AID330 (DTP/NCI, 2004).

The experiment deals with P388 leukemia ip, CD2F1 mice, survival T/C. Put plainly: NCI In Vivo Anticancer Drug Screen. Data for tumor model P388 Leukemia (intraperitoneal) in CD2F1 (CDF1) mice. Particulars: endpoint: median survival time, higher = longer survival. In short, it runs like this: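 Mice carrying the transplanted tumor received test compound or vehicle. Survival was recorded in each group, and the value is the treated-group measurement divided by that of the vehicle-treated control group.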

The mark [1] stands for this setting: dose: 60.0 mg/kg/injection, schedule: Q01DX005 (ip), vehicle: Klucel (hydroxypropylcellulose) (HPC).
[2] abbreviates: dose: 120.0 mg/kg/injection, schedule: Q01DX005 (ip), vehicle: Klucel (hydroxypropylcellulose) (HPC).
The mark [3] stands for this setting: dose: 240.0 mg/kg/injection, schedule: Q01DX005 (ip), vehicle: Klucel (hydroxypropylcellulose) (HPC).
The mark [4] stands for this setting: dose: 50.0 mg/kg/injection, schedule: Q01DX005 (ip), vehicle: Klucel (hydroxypropylcellulose) (HPC).
[5] abbreviates: dose: 100.0 mg/kg/injection, schedule: Q01DX005 (ip), vehicle: Klucel (hydroxypropylcellulose) (HPC).
[6] abbreviates: dose: 200.0 mg/kg/injection, schedule: Q01DX005 (ip), vehicle: Klucel (hydroxypropylcellulose) (HPC).
Setting [7] is: dose: 60.0 mg/kg/injection, schedule: Q01DX005 (ip), vehicle: saline with Tween-80.
Setting [8] is: dose: 120.0 mg/kg/injection, schedule: Q01DX005 (ip), vehicle: saline with Tween-80.
[9] abbreviates: dose: 50.0 mg/kg/injection, schedule: Q01DX009 (ip), vehicle: saline.
The mark [10] stands for this setting: dose: 100.0 mg/kg/injection, schedule: Q01DX009 (ip), vehicle: saline.
The mark [11] stands for this setting: dose: 200.0 mg/kg/injection, schedule: Q01DX009 (ip), vehicle: saline.
The mark [12] stands for this setting: dose: 12.5 mg/kg/injection, schedule: Q01DX009 (ip), vehicle: saline with Tween-80.
[13] abbreviates: dose: 25.0 mg/kg/injection, schedule: Q01DX009 (ip), vehicle: saline with Tween-80.
Where [14] appears, read: dose: 50.0 mg/kg/injection, schedule: Q01DX009 (ip), vehicle: Klucel (hydroxypropylcellulose) (HPC).
[15] abbreviates: dose: 100.0 mg/kg/injection, schedule: Q01DX009 (ip), vehicle: Klucel (hydroxypropylcellulose) (HPC).

Turning to `Cc1cc(O)cc(=O)n1CCc1ccccc1`, the T/C was 88 % of control under setting [1], 94 % of control under setting [2] and 96 % of control under setting [3].

As for `O=C(NNc1c(F)c(F)c(C(F)(F)F)c(F)c1F)c1ccccc1`, the T/C by setting is: under setting [4], 98 % of control; under setting [5], 100 % of control; under setting [6], 91 % of control.

Consider `S=C(SSC(=S)N(Cc1ccccc1)Cc1ccccc1)N(Cc1ccccc1)Cc1ccccc1`, for which the T/C under setting [7] is 96 % of control; the T/C under setting [8] is 103 % of control; the T/C (dose: 240.0 mg/kg/injection, schedule: Q01DX005 (ip), vehicle: saline with Tween-80) is 96 % of control.

In the case of `NCCn1[nH]c(=O)c2ncccc2c1=O`, the T/C under setting [7] is 108 % of control and the T/C under setting [8] is 105 % of control.

`O=C(O)C1=NN(c2ccc(S(=O)(=O)O)cc2)C(=O)C1N=Nc1ccc(S(=O)(=O)O)cc1` (centres undefined): the T/C was 95 % of control under setting [9]; 100 % of control under setting [10]; 100 % of control under setting [11]; 95 % of control (dose: 400.0 mg/kg/injection, schedule: Q01DX009 (ip), vehicle: saline).

Consider `S=C(S)NN1CCCC1`, for which the T/C reads like this: under setting [12], 100 % of control; under setting [13], 100 % of control; (dose: 50.0 mg/kg/injection, schedule: Q01DX009 (ip), vehicle: saline with Tween-80) 100 % of control.

For `O=C1c2ccccc2-c2cccc3ccnc1c23`, the T/C (dose: 8.0 mg/kg/injection, schedule: Q01DX009 (ip), vehicle: Klucel (hydroxypropylcellulose) (HPC)) was 103 % of control; the T/C (dose: 16.0 mg/kg/injection, schedule: Q01DX009 (ip), vehicle: Klucel (hydroxypropylcellulose) (HPC)) was 101 % of control; the T/C (dose: 32.0 mg/kg/injection, schedule: Q01DX009 (ip), vehicle: Klucel (hydroxypropylcellulose) (HPC)) is 103 % of control; the T/C (dose: 64.0 mg/kg/injection, schedule: Q01DX009 (ip), vehicle: Klucel (hydroxypropylcellulose) (HPC)) is 100 % of control.

For the compound `COc1ccc(C(=O)N/N=C2\C(=O)c3c(C)cc(C)cc3CC2(C)C)cc1`, the T/C was 100 % of control under setting [9], 100 % of control under setting [10] and 94 % of control under setting [11].

For `Cc1c([O-])[n+]2cccc3ccn(c1=O)c32`, the T/C runs as follows: under setting [1], 97 % of control; under setting [2], 100 % of control; under setting [3], 94 % of control.

Take `COc1c2c(c3c(c1OC)CCN(CC(c1ccccc1)c1ccccc1)C3)CCC2`: the T/C (dose: 100.0 mg/kg/injection, schedule: Q04DX002 (ip), vehicle: saline) is 101 % of control; the T/C (dose: 200.0 mg/kg/injection, schedule: Q04DX002 (ip), vehicle: saline) was 100 % of control; the T/C (dose: 400.0 mg/kg/injection, schedule: Q04DX002 (ip), vehicle: saline) is 103 % of control.

On to `CCC(C)C(NC(=O)OCC1c2ccccc2-c2ccccc21)C(=O)O` (centres undefined), for which the T/C reads like this: under setting [4], 100 % of control; under setting [5], 100 % of control; under setting [6], 104 % of control.

For the compound `C[CH2][Sn]([CH2]C)([n]1c2ccccc2c2c(C)c3cnccc3c(C)c21)[n]1c2ccccc2c2c(C)c3cnccc3c(C)c21`, the T/C runs as follows: (dose: 1.56 mg/kg/injection, schedule: Q01DX005 (ip), vehicle: Klucel (hydroxypropylcellulose) (HPC)) 118 % of control; (dose: 6.25 mg/kg/injection, schedule: Q01DX005 (ip), vehicle: Klucel (hydroxypropylcellulose) (HPC)) 155 % of control.

In the case of `S=c1[nH]c2ccccc2n1CCc1ccncc1`, the T/C by setting is: (dose: 25.0 mg/kg/injection, schedule: Q01DX007 (ip), vehicle: Klucel (hydroxypropylcellulose) (HPC)) 104 % of control; (dose: 25.0 mg/kg/injection, schedule: Q01DX008 (ip), vehicle: Klucel (hydroxypropylcellulose) (HPC)) 103 % of control; (dose: 50.0 mg/kg/injection, schedule: Q01DX007 (ip), vehicle: Klucel (hydroxypropylcellulose) (HPC)) 104 % of control; (dose: 50.0 mg/kg/injection, schedule: Q01DX008 (ip), vehicle: Klucel (hydroxypropylcellulose) (HPC)) 106 % of control; under setting [14], 93 % of control; (dose: 100.0 mg/kg/injection, schedule: Q01DX007 (ip), vehicle: Klucel (hydroxypropylcellulose) (HPC)) 99 % of control. Further, the T/C is, setting by setting: (dose: 100.0 mg/kg/injection, schedule: Q01DX008 (ip), vehicle: Klucel (hydroxypropylcellulose) (HPC)) 100 % of control; under setting [15], 94 % of control; (dose: 200.0 mg/kg/injection, schedule: Q01DX007 (ip), vehicle: Klucel (hydroxypropylcellulose) (HPC)) 106 % of control; (dose: 200.0 mg/kg/injection, schedule: Q01DX008 (ip), vehicle: Klucel (hydroxypropylcellulose) (HPC)) 106 % of control; (dose: 200.0 mg/kg/injection, schedule: Q01DX009 (ip), vehicle: Klucel (hydroxypropylcellulose) (HPC)) 94 % of control.

`Cc1ccc(S(=O)(=O)NC(CCC(N)=O)C(=O)O)cc1` (centres undefined): the T/C was 100 % of control (dose: 50.0 mg/kg/injection, schedule: Q01DX005 (ip), vehicle: saline with Tween-80); 103 % of control (dose: 100.0 mg/kg/injection, schedule: Q01DX005 (ip), vehicle: saline with Tween-80); 91 % of control (dose: 200.0 mg/kg/injection, schedule: Q01DX005 (ip), vehicle: saline with Tween-80).

In the case of `O=C(O)c1ccc([N+](=O)[O-])o1`, the T/C is, setting by setting: (dose: 25.0 mg/kg/injection, schedule: Q01DX009 (ip), vehicle: Klucel (hydroxypropylcellulose) (HPC)) 99 % of control; under setting [14], 89 % of control; under setting [15], 96 % of control.

Consider `CCOC(=O)N1CCN(c2ccc(/C=C\c3cccc(/C=C\c4ccc(N5CCN(C(=O)OCC)CC5)cc4)[n+]3C)cc2)CC1`, for which the T/C by setting is: (dose: 3.12 mg/kg/injection, schedule: Q01DX009 (ip), vehicle: saline) 118 % of control; (dose: 6.25 mg/kg/injection, schedule: Q01DX009 (ip), vehicle: saline) 111 % of control.

As for `O=C(O)CCOCCCOCCC(=O)O`, the T/C is, setting by setting: (dose: 50.0 mg/kg/injection, schedule: Q01DX005 (ip), vehicle: saline) 95 % of control; (dose: 100.0 mg/kg/injection, schedule: Q01DX005 (ip), vehicle: saline) 98 % of control; (dose: 200.0 mg/kg/injection, schedule: Q01DX005 (ip), vehicle: saline) 100 % of control.

For `CCCOc1cc2c(cc1C(C)c1ccc(OC)cc1)OCO2` (centres undefined), the T/C reads like this: (dose: 25.0 mg/kg/injection, schedule: Q01DX005 (ip), vehicle: distilled water + alcohol) 106 % of control; (dose: 400.0 mg/kg/injection, schedule: Q01DX005 (ip), vehicle: distilled water + alcohol) 112 % of control and 114 % of control.

For the compound `CCC(C)=C(C#N)NC(C)(C)C` (mixture of isomers), the T/C runs as follows: under setting [9], 106 % of control; under setting [10], 100 % of control; under setting [11], 110 % of control.

`CS(=O)(=O)/C=C/C([N+](=O)[O-])[N+](=O)[O-]`: the T/C runs as follows: (dose: 100.0 mg/kg/injection, schedule: Q04DX003 (ip), vehicle: saline) 109 % of control; (dose: 200.0 mg/kg/injection, schedule: Q04DX003 (ip), vehicle: saline) 104 % of control; (dose: 400.0 mg/kg/injection, schedule: Q04DX003 (ip), vehicle: saline) 92 % of control.

Take `OC[CH2][Hg][Br]`: the T/C (dose: 0.37 mg/kg/injection, schedule: Q01DX009 (ip), vehicle: saline) is 101 % of control; the T/C (dose: 0.75 mg/kg/injection, schedule: Q01DX009 (ip), vehicle: saline) is 101 % of control; the T/C (dose: 1.5 mg/kg/injection, schedule: Q01DX009 (ip), vehicle: saline) is 101 % of control; the T/C (dose: 3.0 mg/kg/injection, schedule: Q01DX009 (ip), vehicle: saline) was 118 % of control; the T/C (dose: 6.0 mg/kg/injection, schedule: Q01DX009 (ip), vehicle: saline) was 104 % of control.

On to `CC1(O)Oc2c(cc(C(C)(C)C)cc2C(C)(C)C)C1=O` (centres undefined), for which the T/C runs as follows: (dose: 6.25 mg/kg/injection, schedule: Q01DX009 (ip), vehicle: saline with Tween-80) 99 % of control; under setting [12], 102 % of control; under setting [13], 105 % of control.
